{"source": "ChEMBL document CHEMBL4765455", "about": "“Design, synthesis, and biological evaluations of novel 3-amino-4-ethynyl indazole derivatives as Bcr-Abl kinase inhibitors with potent cellular antileukemic activity” (Eur J Med Chem, 2020)", "key": {"[1]": {"test": "Cmax in ICR mouse at 10 mg/kg, po measured up to 8 hrs by LC-MS/MS analysis", "type": "ADME, organism-based", "set-up": "route oral, dose 10 mg/kg, time <=8", "conditions": "in vivo"}, "[2]": {"biological_target": "Epidermal growth factor receptor (Homo sapiens) (UniProt P00533)", "sequence (P00533 whole entry)": "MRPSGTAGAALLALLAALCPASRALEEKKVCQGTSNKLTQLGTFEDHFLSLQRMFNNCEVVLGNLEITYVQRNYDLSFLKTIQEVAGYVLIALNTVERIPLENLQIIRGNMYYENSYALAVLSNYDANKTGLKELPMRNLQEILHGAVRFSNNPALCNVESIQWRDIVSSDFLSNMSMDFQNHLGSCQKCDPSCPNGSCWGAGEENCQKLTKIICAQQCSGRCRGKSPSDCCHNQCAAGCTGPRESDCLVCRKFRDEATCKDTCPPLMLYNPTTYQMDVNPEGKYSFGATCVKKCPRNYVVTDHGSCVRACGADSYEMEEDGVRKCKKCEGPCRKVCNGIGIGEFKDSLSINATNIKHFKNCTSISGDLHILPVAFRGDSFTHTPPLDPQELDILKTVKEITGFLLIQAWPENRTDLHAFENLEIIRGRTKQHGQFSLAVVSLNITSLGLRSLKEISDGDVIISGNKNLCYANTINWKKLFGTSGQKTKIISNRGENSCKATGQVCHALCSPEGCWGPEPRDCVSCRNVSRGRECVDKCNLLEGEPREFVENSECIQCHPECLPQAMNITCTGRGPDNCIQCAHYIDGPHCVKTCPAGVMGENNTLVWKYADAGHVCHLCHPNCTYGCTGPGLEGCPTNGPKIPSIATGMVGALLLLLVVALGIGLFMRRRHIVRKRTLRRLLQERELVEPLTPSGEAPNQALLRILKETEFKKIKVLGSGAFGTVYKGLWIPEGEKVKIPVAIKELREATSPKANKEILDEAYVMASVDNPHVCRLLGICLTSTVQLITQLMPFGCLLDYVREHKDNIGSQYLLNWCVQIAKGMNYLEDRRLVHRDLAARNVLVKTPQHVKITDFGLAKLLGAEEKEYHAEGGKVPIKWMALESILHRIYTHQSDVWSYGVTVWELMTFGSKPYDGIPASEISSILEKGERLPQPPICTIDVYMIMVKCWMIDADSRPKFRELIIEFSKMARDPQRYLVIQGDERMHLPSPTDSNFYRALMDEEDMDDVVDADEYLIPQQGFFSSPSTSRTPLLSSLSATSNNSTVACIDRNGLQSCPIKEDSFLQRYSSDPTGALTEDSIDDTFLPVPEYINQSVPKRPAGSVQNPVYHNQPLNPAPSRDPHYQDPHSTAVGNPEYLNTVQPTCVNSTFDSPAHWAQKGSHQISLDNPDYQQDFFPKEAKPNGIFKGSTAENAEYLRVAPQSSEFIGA", "test": "Inhibition of EGFR (unknown origin) at 1 uM relative to control"}, "[3]": {"biological_target": "Serine/threonine-protein kinase B-raf (Homo sapiens, UniProt P15056)", "test": "Inhibition of BRAF (unknown origin) at 1 uM relative to control"}, "[4]": {"test": "Oral bioavailability in ICR mouse at 10 mg/kg measured up to 8 hrs by LC-MS/MS analysis", "type": "ADME, organism-based", "conditions": "in vivo"}, "[5]": {"tested_on": "MOLT-4", "test": "Antiproliferative activity against human MOLT-4 cells assessed as cell growth inhibition at 10 uM measured after 48 hrs by SRB assay relative to control", "type": "functional", "conditions": "read-out: GI"}, "[6]": {"test": "Clearance in ICR mouse at 5 mg/kg, iv measured up to 8 hrs by LC-MS/MS analysis", "type": "ADME, organism-based", "conditions": "in vivo"}, "[7]": {"organism": "Homo sapiens", "test": "Selectivity index, ratio of IC50 for human ERG to EC50 for ABL1 (unknown origin) expressed in human HEK293 cells", "type": "cell-based"}, "[8]": {"biological_target": "Aurora kinase A (Homo sapiens) (UniProt O14965)", "test": "Inhibition of Aurora A (unknown origin) at 1 uM relative to control"}, "[9]": {"tested_on": "CCRF-CEM", "test": "Antiproliferative activity against human CCRF-CEM cells assessed as cell growth inhibition at 10 uM measured after 48 hrs by SRB assay relative to control", "type": "functional", "conditions": "read-out: GI"}, "[10]": {"biological_target": "Rho-associated protein kinase 1 (Homo sapiens) (UniProt Q13464)", "sequence (Q13464 2-1354 limits assumed)": "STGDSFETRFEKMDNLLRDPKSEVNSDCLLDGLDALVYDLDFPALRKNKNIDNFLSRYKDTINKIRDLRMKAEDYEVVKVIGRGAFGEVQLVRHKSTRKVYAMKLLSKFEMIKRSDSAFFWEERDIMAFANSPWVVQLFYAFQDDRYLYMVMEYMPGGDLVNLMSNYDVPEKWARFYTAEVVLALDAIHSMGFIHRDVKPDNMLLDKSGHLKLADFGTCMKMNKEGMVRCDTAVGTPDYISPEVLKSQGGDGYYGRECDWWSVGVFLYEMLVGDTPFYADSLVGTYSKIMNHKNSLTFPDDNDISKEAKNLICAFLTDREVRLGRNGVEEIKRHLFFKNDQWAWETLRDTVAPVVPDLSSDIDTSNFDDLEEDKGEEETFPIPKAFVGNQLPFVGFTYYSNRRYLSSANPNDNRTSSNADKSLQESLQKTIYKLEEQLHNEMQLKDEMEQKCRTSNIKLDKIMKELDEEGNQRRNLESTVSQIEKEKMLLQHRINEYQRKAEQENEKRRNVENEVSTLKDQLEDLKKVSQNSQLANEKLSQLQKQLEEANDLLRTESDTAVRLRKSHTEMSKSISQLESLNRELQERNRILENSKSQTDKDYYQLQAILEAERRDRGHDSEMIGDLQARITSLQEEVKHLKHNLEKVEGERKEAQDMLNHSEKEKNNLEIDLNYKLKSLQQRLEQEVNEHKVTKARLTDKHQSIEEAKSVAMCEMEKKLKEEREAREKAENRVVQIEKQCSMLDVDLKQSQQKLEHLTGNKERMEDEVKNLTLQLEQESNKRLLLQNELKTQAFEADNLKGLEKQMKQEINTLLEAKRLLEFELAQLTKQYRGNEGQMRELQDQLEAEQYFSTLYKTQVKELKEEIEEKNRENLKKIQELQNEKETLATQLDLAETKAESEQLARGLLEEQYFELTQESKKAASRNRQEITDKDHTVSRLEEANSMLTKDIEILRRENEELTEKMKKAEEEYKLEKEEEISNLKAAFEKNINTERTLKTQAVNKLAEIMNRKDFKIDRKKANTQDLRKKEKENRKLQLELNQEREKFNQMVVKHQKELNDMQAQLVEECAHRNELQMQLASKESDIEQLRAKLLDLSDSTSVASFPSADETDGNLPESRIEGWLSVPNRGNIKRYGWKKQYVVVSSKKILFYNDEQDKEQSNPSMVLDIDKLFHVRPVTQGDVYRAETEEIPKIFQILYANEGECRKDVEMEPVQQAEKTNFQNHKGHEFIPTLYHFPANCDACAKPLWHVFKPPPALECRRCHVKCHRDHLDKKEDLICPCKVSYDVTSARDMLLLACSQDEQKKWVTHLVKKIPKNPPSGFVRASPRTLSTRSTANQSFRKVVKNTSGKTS", "test": "Inhibition of ROCK1 (unknown origin) at 1 uM relative to control"}, "[11]": {"test": "Half life in ICR mouse at 10 mg/kg, po measured up to 8 hrs by LC-MS/MS analysis", "type": "ADME, organism-based", "conditions": "in vivo"}, "[12]": {"test": "AUClast in ICR mouse at 5 mg/kg, iv measured up to 8 hrs by LC-MS/MS analysis", "type": "ADME, organism-based", "set-up": "route intravenous, dose 5 mg/kg, time <=8", "conditions": "in vivo"}, "[13]": {"test": "AUClast in ICR mouse at 10 mg/kg, po measured up to 8 hrs by LC-MS/MS analysis", "type": "ADME, organism-based", "set-up": "route oral, dose 10 mg/kg, time <=8", "conditions": "in vivo"}, "[14]": {"test": "Half life in ICR mouse at 5 mg/kg, iv measured up to 8 hrs by LC-MS/MS analysis", "type": "ADME, organism-based", "conditions": "in vivo"}, "[15]": {"test": "Selectivity index, ratio of GI50 for human HL60(TB) cells to GI50 for human K562 cells", "type": "functional"}, "[16]": {"biological_target": "Macrophage colony-stimulating factor 1 receptor (Homo sapiens, UniProt P07333)", "test": "Inhibition of FMS (unknown origin) in presence of ATP"}, "[17]": {"biological_target": "Proto-oncogene tyrosine-protein kinase ROS (Homo sapiens) (UniProt P08922)", "test": "Inhibition of ROS/ROS1 (unknown origin) at 1 uM relative to control"}, "[18]": {"biological_target": "Serine/threonine-protein kinase PLK1 (Homo sapiens) (UniProt P53350)", "sequence (P53350 whole entry)": "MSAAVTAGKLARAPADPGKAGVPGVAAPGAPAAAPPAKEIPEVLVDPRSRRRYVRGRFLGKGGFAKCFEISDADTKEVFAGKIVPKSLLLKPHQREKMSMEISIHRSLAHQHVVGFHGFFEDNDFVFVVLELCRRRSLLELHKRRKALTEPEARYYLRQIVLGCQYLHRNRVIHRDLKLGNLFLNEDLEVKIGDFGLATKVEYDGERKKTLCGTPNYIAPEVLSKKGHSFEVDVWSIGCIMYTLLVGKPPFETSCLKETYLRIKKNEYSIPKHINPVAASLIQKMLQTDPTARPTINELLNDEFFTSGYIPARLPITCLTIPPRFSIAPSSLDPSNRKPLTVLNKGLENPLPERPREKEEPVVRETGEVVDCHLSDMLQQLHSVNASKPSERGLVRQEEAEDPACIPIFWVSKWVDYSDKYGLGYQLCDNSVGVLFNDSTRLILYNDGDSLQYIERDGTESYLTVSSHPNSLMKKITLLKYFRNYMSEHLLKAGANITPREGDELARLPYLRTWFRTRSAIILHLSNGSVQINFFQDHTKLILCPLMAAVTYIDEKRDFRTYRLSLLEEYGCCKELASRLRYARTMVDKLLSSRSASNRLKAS", "test": "Inhibition of PLK1 (unknown origin) at 1 uM relative to control"}, "[19]": {"tested_on": "HL-60(TB)", "test": "Antiproliferative activity against human HL-60(TB) cells assessed as cell growth inhibition measured after 48 hrs by SRB assay", "type": "functional"}, "[20]": {"test": "Tmax in ICR mouse at 10 mg/kg, po measured up to 8 hrs by LC-MS/MS analysis", "type": "ADME, organism-based", "conditions": "in vivo"}, "[21]": {"biological_target": "Tyrosine-protein kinase SYK (Homo sapiens) (UniProt P43405)", "test": "Inhibition of SYK (unknown origin) at 1 uM relative to control"}, "[22]": {"biological_target": "Tyrosine-protein kinase JAK2 (Homo sapiens) (UniProt O60674)", "sequence (O60674 whole entry)": "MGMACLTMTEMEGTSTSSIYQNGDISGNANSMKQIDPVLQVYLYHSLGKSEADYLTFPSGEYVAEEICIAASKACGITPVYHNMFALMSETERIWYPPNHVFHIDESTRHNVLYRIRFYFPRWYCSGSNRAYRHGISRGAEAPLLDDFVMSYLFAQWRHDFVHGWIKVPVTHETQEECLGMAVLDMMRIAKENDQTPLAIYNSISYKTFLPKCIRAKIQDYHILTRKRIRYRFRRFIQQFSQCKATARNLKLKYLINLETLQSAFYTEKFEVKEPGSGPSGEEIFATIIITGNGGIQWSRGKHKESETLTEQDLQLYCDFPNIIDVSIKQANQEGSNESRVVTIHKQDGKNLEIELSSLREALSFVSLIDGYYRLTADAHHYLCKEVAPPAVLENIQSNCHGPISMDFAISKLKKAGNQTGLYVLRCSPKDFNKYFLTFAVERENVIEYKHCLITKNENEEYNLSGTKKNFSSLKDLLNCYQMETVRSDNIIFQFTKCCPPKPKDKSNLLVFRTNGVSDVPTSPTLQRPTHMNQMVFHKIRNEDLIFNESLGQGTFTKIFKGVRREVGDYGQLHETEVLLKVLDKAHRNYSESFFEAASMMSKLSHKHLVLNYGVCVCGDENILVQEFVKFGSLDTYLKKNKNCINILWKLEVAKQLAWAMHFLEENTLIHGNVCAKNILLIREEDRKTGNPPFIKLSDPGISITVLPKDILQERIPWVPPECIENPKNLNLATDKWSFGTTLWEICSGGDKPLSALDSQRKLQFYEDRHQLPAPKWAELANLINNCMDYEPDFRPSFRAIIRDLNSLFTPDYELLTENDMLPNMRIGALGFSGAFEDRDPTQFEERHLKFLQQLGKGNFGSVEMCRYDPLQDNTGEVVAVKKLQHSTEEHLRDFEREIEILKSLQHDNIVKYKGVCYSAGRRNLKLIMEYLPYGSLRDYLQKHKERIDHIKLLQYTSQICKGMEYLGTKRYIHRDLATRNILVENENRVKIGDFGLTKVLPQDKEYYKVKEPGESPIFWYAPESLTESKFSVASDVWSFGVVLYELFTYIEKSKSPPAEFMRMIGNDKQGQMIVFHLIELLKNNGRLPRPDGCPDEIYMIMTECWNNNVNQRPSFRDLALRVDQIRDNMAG", "test": "Inhibition of JAK2 (unknown origin) at 1 uM relative to control"}, "[23]": {"tested_on": "SR", "test": "Antiproliferative activity against human SR cells assessed as cell growth inhibition at 10 uM measured after 48 hrs by SRB assay relative to control", "type": "functional", "conditions": "read-out: GI"}, "[24]": {"biological_target": "Death-associated protein kinase 1 (Homo sapiens) (UniProt P53355)", "test": "Inhibition of DAPK1 (unknown origin) at 1 uM relative to control"}, "[25]": {"tested_on": "HL-60(TB)", "test": "Antiproliferative activity against human HL-60(TB) cells assessed as cell growth inhibition at 10 uM measured after 48 hrs by SRB assay relative to control", "type": "functional", "conditions": "read-out: GI"}, "[26]": {"tested_on": "CCRF-CEM", "test": "Antiproliferative activity against human CCRF-CEM cells assessed as cell growth inhibition measured after 48 hrs by SRB assay", "type": "functional"}, "[27]": {"test": "Antiproliferative activity against human L132 cells assessed as cell growth inhibition incubated for 72 hrs by MTT assay", "type": "cell-based"}, "[28]": {"biological_target": "Focal adhesion kinase 1 (Homo sapiens) (UniProt Q05397)", "test": "Inhibition of FAK/PTK2 (unknown origin) at 1 uM relative to control"}, "[29]": {"biological_target": "Tyrosine-protein kinase ABL1 (Homo sapiens, UniProt P00519)", "test": "Inhibition of NanoLuc-fused ABL1 (unknown origin) expressed in human HEK293 cells incubated for 2 to 3 mins by NanoBRET assay", "type": "cell-based"}, "[30]": {"organism": "Homo sapiens", "test": "Potency index, ratio of test compound IC50 to E4031 IC50 for human […]"}, "[31]": {"biological_target": "High affinity nerve growth factor receptor (Homo sapiens) (UniProt P04629)", "sequence (P04629 33-796 limits assumed)": "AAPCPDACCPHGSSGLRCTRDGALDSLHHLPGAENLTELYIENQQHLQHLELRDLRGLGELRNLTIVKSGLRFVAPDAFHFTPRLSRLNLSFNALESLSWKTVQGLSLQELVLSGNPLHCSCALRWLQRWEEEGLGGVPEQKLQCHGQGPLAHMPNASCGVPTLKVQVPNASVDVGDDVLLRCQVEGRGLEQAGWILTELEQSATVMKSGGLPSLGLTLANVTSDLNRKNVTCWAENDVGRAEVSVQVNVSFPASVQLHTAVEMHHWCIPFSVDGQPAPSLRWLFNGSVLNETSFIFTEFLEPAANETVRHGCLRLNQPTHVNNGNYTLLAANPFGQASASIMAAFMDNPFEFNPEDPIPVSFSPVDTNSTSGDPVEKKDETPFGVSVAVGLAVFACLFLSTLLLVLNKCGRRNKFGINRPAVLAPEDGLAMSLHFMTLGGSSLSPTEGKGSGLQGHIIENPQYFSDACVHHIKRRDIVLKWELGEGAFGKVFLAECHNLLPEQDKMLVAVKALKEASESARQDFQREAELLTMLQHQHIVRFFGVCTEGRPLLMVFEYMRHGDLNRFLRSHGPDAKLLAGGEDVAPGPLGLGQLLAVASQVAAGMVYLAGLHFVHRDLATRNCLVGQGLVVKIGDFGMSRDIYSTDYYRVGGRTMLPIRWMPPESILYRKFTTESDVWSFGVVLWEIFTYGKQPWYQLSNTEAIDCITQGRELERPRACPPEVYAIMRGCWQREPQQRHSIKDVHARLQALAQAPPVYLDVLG", "test": "Inhibition of TRKA (unknown origin) at 1 uM relative to control"}, "[32]": {"test": "Volume of distribution at steady state in ICR mouse at 5 mg/kg, iv measured up to 8 hrs by LC-MS/MS analysis", "type": "ADME, organism-based", "conditions": "in vivo, read-out: Vdss"}, "[33]": {"organism": "Homo sapiens", "test": "Selectivity index, ratio of IC50 for FMS (unknown origin) to IC50 for Bcr-Abl (unknown origin)"}, "[34]": {"tested_on": "K562", "test": "Antiproliferative activity against human K562 cells assessed as cell growth inhibition measured after 48 hrs by SRB assay", "type": "functional"}, "[35]": {"tested_on": "RPMI-8226", "test": "Antiproliferative activity against human RPMI-8226 cells assessed as cell growth inhibition measured after 48 hrs by SRB assay", "type": "functional"}, "[36]": {"biological_target": "Voltage-gated inwardly rectifying potassium channel KCNH2 (Homo sapiens, UniProt Q12809)", "test": "Inhibition of human ERG incubated for 4 hrs by competitive fluorescence tracer binding based assay"}, "[37]": {"biological_target": "Serine/threonine-protein kinase pim-1 (Homo sapiens) (UniProt P11309)", "test": "Inhibition of PIM1 (unknown origin) at 1 uM relative to control"}, "[38]": {"biological_target": "Proto-oncogene tyrosine-protein kinase Src (Homo sapiens, UniProt P12931)", "test": "Inhibition of c-Src (unknown origin) in presence of ATP"}, "[39]": {"biological_target": "Hepatocyte growth factor receptor (Homo sapiens) (UniProt P08581)", "test": "Inhibition of c-MET (unknown origin) at 1 uM relative to control"}, "[40]": {"tested_on": "K562", "test": "Antiproliferative activity against human K562 cells assessed as cell growth inhibition incubated for 72 hrs by MTT assay", "type": "functional"}, "[41]": {"tested_on": "SR", "test": "Antiproliferative activity against human SR cells assessed as cell growth inhibition measured after 48 hrs by SRB assay", "type": "functional"}, "[42]": {"biological_target": "Receptor-type tyrosine-protein kinase FLT3 (Homo sapiens) (UniProt P36888)", "test": "Inhibition of FLT3 (unknown origin) at 1 uM relative to control"}, "[43]": {"biological_target": "Insulin-like growth factor 1 receptor (Homo sapiens) (UniProt P08069)", "test": "Inhibition of IGF1R (unknown origin) at 1 uM relative to control"}, "[44]": {"test": "Mean residence time in ICR mouse at 10 mg/kg, po measured up to 8 hrs by LC-MS/MS analysis", "type": "ADME, organism-based", "conditions": "in vivo"}}, "data": [{"smiles": "Nc1n[nH]c2cccc(C#Cc3cccc(NC(=O)c4ccc(N5CCOCC5)c(C(F)(F)F)c4)c3)c12", "values": [{"measurement": "Cmax", "setting": "[1]", "result": 113, "unit": "ng/mL"}, {"measurement": "inhibition", "setting": "[2]", "result": 43.4, "unit": "%"}, {"measurement": "inhibition", "setting": "[3]", "result": 87.8, "unit": "%"}, {"measurement": "bioavailability", "setting": "[4]", "result": 0.6, "unit": "%"}, {"measurement": "inhibition of growth at 10 µM", "setting": "[5]", "result": 92.3, "unit": "%"}, {"measurement": "clearance", "setting": "[6]", "result": 5, "unit": "mL/min/kg"}, {"measurement": "Ratio IC50/EC50", "setting": "[7]", "result": 233}, {"measurement": "inhibition", "setting": "[8]", "result": 43.4, "unit": "%"}, {"measurement": "inhibition of growth at 10 µM", "setting": "[9]", "result": 89.5, "unit": "%"}, {"measurement": "inhibition", "setting": "[10]", "result": "< 30", "unit": "%"}, {"measurement": "half-life", "setting": "[11]", "result": 0.7, "unit": "h"}, {"measurement": "AUC(0-t) at 8 h", "setting": "[12]", "result": 14000, "unit": "ng·h/mL"}, {"measurement": "AUC(0-t) at 8 h", "setting": "[13]", "result": 175, "unit": "ng·h/mL"}, {"measurement": "half-life", "setting": "[14]", "result": 3.5, "unit": "h"}, {"measurement": "RatioGI50", "setting": "[15]", "result": 140}, {"measurement": "IC50", "setting": "[16]", "result": 16.2, "unit": "nM"}, {"measurement": "inhibition", "setting": "[17]", "result": "< 30", "unit": "%"}, {"measurement": "inhibition", "setting": "[18]", "result": "< 30", "unit": "%"}, {"measurement": "GI50", "setting": "[19]", "result": 1400, "unit": "nM"}, {"measurement": "Tmax", "setting": "[20]", "result": 0.6, "unit": "h"}, {"measurement": "inhibition", "setting": "[21]", "result": "< 30", "unit": "%"}, {"measurement": "inhibition", "setting": "[22]", "result": "< 30", "unit": "%"}, {"measurement": "inhibition of growth at 10 µM", "setting": "[23]", "result": 87.4, "unit": "%"}, {"measurement": "inhibition", "setting": "[24]", "result": "< 30", "unit": "%"}, {"measurement": "inhibition of growth at 10 µM", "setting": "[25]", "result": 98, "unit": "%"}, {"measurement": "GI50", "setting": "[26]", "result": 1360, "unit": "nM"}, {"measurement": "GI50 at 72 h", "setting": "[27]", "result": 9270, "unit": "nM"}, {"measurement": "inhibition", "setting": "[28]", "result": "< 30", "unit": "%"}, {"measurement": "EC50", "setting": "[29]", "result": 14.6, "unit": "nM"}, {"measurement": "Ratio IC50", "setting": "[30]", "result": 310}, {"measurement": "inhibition", "setting": "[31]", "result": "< 30", "unit": "%"}, {"measurement": "Vd", "setting": "[32]", "result": 1.4, "unit": "L/kg"}, {"measurement": "Ratio IC50", "setting": "[33]", "result": 3.5}, {"measurement": "GI50", "setting": "[34]", "result": "< 10", "unit": "nM"}, {"measurement": "GI50", "setting": "[35]", "result": 1980, "unit": "nM"}, {"measurement": "IC50", "setting": "[36]", "result": 3400, "unit": "nM"}, {"measurement": "inhibition", "setting": "[37]", "result": "< 30", "unit": "%"}, {"measurement": "IC50", "setting": "[38]", "result": 66, "unit": "nM"}, {"measurement": "inhibition", "setting": "[39]", "result": 43.4, "unit": "%"}, {"measurement": "GI50", "setting": "[40]", "result": 20, "unit": "nM"}, {"measurement": "GI50", "setting": "[41]", "result": 2400, "unit": "nM"}, {"measurement": "inhibition", "setting": "[42]", "result": 87.8, "unit": "%"}, {"measurement": "inhibition", "setting": "[43]", "result": "< 30", "unit": "%"}, {"measurement": "MRT", "setting": "[44]", "result": 1.3, "unit": "h"}]}]}
